From ChEMBL document CHEMBL4622850, “Discovery and optimization of new oxadiazole substituted thiazole RORγt inverse agonists through a bioisosteric amide replacement approach” (Bioorg Med Chem Lett, 2020)
pIC50: −log10 of the molar value. Values after ≈ are worked out from the molar mass of the structure shown.

How the values were obtained:
[1] = Solubility of compound by pH 2; format: physicochemical; settings: buffer
[2] = Solubility of compound by pH 7; format: physicochemical; settings: buffer
[3] = Cmax in rat at 5 mg/kg, po; format: ADME, organism-based; design: dose 5 mg/kg, route oral; settings: in vivo
[4] = AUC in rat at 5 mg/kg, po; format: ADME, organism-based; settings: in vivo
[5] = Clearance in rat at 1 mg/kg, iv; format: ADME, organism-based; settings: in vivo
[6] = Volume of distribution in rat at 1 mg/kg, iv; format: ADME, organism-based; settings: in vivo
[7] = Half life in rat at 1 mg/kg, iv; format: ADME, organism-based; settings: in vivo
[8] = Oral bioavailability in rat at 1 mg/kg; format: ADME, organism-based; settings: in vivo
[9] = molecular target: T1, Nuclear receptor ROR-gamma (Mus musculus, UniProt P51450); experiment: Inverse agonist activity at RORgammat in mouse whole blood assessed as reduction in IL-17a production; format: tissue-based
T1 sequence (P51450 whole entry): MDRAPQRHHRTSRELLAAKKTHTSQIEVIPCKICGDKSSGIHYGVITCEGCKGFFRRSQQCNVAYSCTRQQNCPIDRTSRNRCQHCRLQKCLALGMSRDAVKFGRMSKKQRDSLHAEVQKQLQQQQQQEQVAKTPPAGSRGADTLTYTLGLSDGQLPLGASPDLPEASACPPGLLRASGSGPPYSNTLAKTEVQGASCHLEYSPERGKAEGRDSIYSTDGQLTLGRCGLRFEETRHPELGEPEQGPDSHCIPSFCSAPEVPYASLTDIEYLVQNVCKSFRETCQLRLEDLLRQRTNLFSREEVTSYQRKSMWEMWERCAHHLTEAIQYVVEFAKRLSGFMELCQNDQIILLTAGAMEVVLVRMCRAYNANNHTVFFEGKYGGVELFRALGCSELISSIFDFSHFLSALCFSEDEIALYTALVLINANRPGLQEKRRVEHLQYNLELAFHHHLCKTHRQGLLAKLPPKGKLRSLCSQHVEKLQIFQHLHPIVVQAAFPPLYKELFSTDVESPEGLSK

Cytochrome P450 2C19 = Cytochrome P450 2C19 (Homo sapiens, UniProt P33261); experiment: Inhibition of CYP2C19 (unknown origin); format: ADME
[10] = Metabolic stability in human liver microsomes assessed as half life; format: ADME, Microsome
[11] = Metabolic stability in rat liver microsomes assessed as half life; format: ADME, Microsome
[12] = Protein binding in human plasma; format: ADME, cell-free; settings: read-out: PPB (converted)
[13] = Protein binding in mouse plasma; format: ADME, cell-free; settings: read-out: PPB (converted)
[14] = Protein binding in rat plasma; format: ADME, cell-free; settings: read-out: PPB (converted)
[15] = molecular target: T2, Nuclear receptor subfamily 1 group I member 2 (Homo sapiens, UniProt O75469); experiment: Activation of PXR (unknown origin) at 1 uM; format: ADME
T2 sequence (O75469 whole entry): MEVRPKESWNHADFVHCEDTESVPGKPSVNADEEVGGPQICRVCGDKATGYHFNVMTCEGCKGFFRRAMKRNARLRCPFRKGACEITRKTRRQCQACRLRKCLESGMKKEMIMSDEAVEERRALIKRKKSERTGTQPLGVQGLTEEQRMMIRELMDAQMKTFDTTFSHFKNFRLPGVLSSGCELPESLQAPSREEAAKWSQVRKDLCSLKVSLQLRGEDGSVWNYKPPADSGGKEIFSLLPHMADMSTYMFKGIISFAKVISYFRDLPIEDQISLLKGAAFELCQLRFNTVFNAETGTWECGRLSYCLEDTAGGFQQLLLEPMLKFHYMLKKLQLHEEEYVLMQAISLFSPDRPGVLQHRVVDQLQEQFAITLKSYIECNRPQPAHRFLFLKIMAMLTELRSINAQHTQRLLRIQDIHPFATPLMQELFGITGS

CYP3A4 [16] = molecular target: T3, CYP3A4 (Homo sapiens, UniProt P08684); experiment: Inhibition of CYP3A4 (unknown origin) at 1 uM; format: ADME
CYP3A4 [17] = molecular target: T3, CYP3A4; experiment: Inhibition of CYP3A4 (unknown origin) at 10 uM; format: ADME
[18] = Plasma concentration in mouse at 30 mg/kg, po measured after 1 hr; format: ADME, organism-based
[19] = molecular target: T4, Nuclear receptor ROR-gamma (Mus musculus) (UniProt P51450); experiment: In vivo inhibition of RORgammat in mouse assessed as reduction in IL-17a production at 30 mg/kg, po measured after 1 hr relative to control; format: functional, organism-based
T4 sequence (whole entry): T1 sequence (P51450 whole entry)

[20] = Plasma concentration in mouse at 3 mg/kg, po measured after 1 hr; format: ADME, organism-based
[21] = molecular target: T4, Nuclear receptor ROR-gamma (Mus musculus); experiment: In vivo inhibition of RORgammat in mouse assessed as reduction in IL-17a production at 3 mg/kg, po measured after 1 hr relative to control; format: functional, organism-based
[22] = Cmax in rat at 1000 mg/kg, po measured on day 1; format: ADME, organism-based; design: dose 1000 mg/kg, route oral; settings: in vivo
[23] = AUC in rat at 1000 mg/kg, po measured on day 1; format: ADME, organism-based; settings: in vivo
[24] = Cmax in rat at 1000 mg/kg, po measured on day 5; format: ADME, organism-based; design: dose 1000 mg/kg, route oral; settings: in vivo
[25] = AUC in rat at 1000 mg/kg, po measured on day 5; format: ADME, organism-based; settings: in vivo
[26] = molecular target: T2, Nuclear receptor subfamily 1 group I member 2; experiment: Activation of PXR (unknown origin) at 5 uM; format: ADME
Cytochrome P450 2C9 = Cytochrome P450 2C9 (Homo sapiens, UniProt P11712); experiment: Inhibition of CYP2C9 (unknown origin); format: ADME
Cytochrome P450 2C8 = molecular target: T5, Cytochrome P450 2C8 (Homo sapiens, UniProt P10632); experiment: Inhibition of CYP2C8 (unknown origin); format: ADME
T5 sequence (P10632 whole entry): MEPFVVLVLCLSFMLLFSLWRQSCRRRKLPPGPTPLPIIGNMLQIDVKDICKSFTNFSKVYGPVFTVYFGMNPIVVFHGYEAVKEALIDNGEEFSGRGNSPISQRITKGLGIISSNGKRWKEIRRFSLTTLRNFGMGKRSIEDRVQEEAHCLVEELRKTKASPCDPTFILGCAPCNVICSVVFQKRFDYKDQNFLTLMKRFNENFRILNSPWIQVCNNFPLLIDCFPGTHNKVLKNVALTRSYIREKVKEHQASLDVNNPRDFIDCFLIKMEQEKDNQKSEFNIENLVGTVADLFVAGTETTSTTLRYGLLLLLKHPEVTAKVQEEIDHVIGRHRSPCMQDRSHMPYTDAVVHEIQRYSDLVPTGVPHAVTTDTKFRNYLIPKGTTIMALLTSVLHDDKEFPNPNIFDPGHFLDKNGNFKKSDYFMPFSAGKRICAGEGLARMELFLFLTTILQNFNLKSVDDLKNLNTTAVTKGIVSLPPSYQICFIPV

[27] = Plasma concentration in mouse at 30 mg/kg, po measured after 0.5 hrs; format: ADME, organism-based
[28] = Plasma concentration in mouse at 30 mg/kg, po measured after 2 hrs; format: ADME, organism-based
[29] = Plasma concentration in mouse at 30 mg/kg, po measured after 4 hrs; format: ADME, organism-based
[30] = Plasma concentration in mouse at 30 mg/kg, po measured after 7 hrs; format: ADME, organism-based
[31] = Plasma concentration in mouse at 30 mg/kg, po measured after 24 hrs; format: ADME, organism-based
[32] = molecular target: T4, Nuclear receptor ROR-gamma (Mus musculus); experiment: In vivo inhibition of RORgammat in mouse assessed as reduction in IL-17a production at 30 mg/kg, po measured after 0.5 hrs relative to control; format: functional, organism-based
[33] = molecular target: T4, Nuclear receptor ROR-gamma (Mus musculus); experiment: In vivo inhibition of RORgammat in mouse assessed as reduction in IL-17a production at 30 mg/kg, po measured after 2 hrs relative to control; format: functional, organism-based
[34] = molecular target: T4, Nuclear receptor ROR-gamma (Mus musculus); experiment: In vivo inhibition of RORgammat in mouse assessed as reduction in IL-17a production at 30 mg/kg, po measured after 4 hrs relative to control; format: functional, organism-based
[35] = molecular target: T4, Nuclear receptor ROR-gamma (Mus musculus); experiment: In vivo inhibition of RORgammat in mouse assessed as reduction in IL-17a production at 30 mg/kg, po measured after 7 hrs relative to control; format: functional, organism-based
[36] = molecular target: T4, Nuclear receptor ROR-gamma (Mus musculus); experiment: In vivo inhibition of RORgammat in mouse assessed as reduction in IL-17a production at 30 mg/kg, po measured after 24 hrs relative to control; format: functional, organism-based
[37] = Cmax in rat at 300 mg/kg, po measured on day 1; format: ADME, organism-based; design: dose 300 mg/kg, route oral; settings: in vivo
[38] = AUC in rat at 300 mg/kg, po measured on day 1; format: ADME, organism-based; settings: in vivo
[39] = Cmax in rat at 300 mg/kg, po measured on day 5; format: ADME, organism-based; design: dose 300 mg/kg, route oral; settings: in vivo
[40] = AUC in rat at 300 mg/kg, po measured on day 5; format: ADME, organism-based; settings: in vivo

T3 sequence (P08684 whole entry): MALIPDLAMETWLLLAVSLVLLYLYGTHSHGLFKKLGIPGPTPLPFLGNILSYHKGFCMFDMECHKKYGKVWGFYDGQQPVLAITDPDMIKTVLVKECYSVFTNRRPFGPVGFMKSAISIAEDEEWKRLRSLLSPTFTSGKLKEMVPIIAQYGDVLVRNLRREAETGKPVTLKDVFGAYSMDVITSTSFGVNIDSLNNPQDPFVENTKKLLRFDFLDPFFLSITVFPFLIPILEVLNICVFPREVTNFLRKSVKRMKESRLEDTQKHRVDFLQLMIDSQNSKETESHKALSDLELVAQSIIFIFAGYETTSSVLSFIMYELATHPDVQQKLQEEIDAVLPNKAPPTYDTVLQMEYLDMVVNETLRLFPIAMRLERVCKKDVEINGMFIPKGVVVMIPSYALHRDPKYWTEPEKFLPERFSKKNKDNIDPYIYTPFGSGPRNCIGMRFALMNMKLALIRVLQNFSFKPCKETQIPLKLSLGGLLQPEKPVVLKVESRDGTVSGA
Cytochrome P450 2C19, sequence (P33261 whole entry): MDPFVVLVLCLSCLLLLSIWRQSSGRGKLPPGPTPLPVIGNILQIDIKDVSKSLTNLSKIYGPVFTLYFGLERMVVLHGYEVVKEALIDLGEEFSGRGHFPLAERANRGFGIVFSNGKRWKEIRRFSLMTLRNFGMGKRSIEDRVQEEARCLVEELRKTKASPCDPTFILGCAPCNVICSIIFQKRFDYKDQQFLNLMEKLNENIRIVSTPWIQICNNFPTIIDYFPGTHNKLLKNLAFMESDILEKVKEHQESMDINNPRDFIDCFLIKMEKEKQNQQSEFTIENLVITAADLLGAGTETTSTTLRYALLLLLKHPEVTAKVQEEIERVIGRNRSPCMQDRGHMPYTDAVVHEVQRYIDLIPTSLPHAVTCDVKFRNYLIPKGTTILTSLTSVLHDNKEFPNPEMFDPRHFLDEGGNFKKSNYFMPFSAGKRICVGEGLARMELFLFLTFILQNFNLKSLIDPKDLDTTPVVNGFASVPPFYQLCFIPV
Cytochrome P450 2C9, sequence (P11712 whole entry): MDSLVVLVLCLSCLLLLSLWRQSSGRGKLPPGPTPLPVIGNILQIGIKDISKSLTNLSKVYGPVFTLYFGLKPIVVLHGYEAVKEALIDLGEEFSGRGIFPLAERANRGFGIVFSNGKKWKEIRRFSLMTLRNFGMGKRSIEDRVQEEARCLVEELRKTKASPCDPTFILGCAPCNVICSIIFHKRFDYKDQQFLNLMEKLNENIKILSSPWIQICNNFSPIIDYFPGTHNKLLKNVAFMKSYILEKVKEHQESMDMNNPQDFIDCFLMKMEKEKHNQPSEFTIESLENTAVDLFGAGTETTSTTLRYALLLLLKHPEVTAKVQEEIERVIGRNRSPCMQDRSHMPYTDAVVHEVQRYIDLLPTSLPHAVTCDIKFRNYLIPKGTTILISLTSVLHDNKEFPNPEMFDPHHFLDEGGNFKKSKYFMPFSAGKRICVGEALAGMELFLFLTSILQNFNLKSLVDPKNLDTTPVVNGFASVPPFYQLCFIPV

C[C@H](NS(=O)(=O)c1ccc(-c2sc(-c3nnc(C(C)(C)O)o3)nc2C(=O)N2CCC(F)(F)CC2)c(Cl)c1Cl)C(F)(F)F
solubility [1]: 18 µM (≈ 12.2 µg/mL) | solubility [2]: 35 µM (≈ 23.7 µg/mL) | Cmax [3]: 0.23 µM | AUC [4]: 1.57 µg·h/mL | clearance [5]: 25 mL/min/kg | Vd [6]: 7.7 L/kg | half-life [7]: 4.3 h | bioavailability [8]: 47% | pIC50 [9]: 6.71 | pIC50 (Cytochrome P450 2C19): 5.17 | half-life [10]: > 3 h | half-life [11]: 2.47 h | fraction unbound [12]: 0.077 | fraction unbound [13]: 0.058 | fraction unbound [14]: 0.095 | Activity [15]: 8.5% | inhibition at 1 µM (CYP3A4 [16]): 8.1% | inhibition at 10 µM (CYP3A4 [17]): 26% | concentration at 1 h [18]: 10.2 µM | inhibition [19]: 84% | concentration at 1 h [20]: 0.49 µM | inhibition [21]: 69% | Cmax [22]: 24.5 µg/mL | AUC [23]: 274 µg·h/mL | Cmax [24]: 3.16 µg/mL | AUC [25]: 51 µg·h/mL

CC[C@H](NS(=O)(=O)c1ccc(-c2sc(CC(C)(C)C(=O)O)nc2CC2CCC2)c(C(F)F)c1F)C(F)(F)F
Activity [26]: 21% | solubility [1]: < 4 µM | solubility [2]: 355 µM (≈ 208 µg/mL) | Cmax [3]: 3.8 µM | AUC [4]: 32.7 µg·h/mL | clearance [5]: 2.9 mL/min/kg | Vd [6]: 1.7 L/kg | half-life [7]: 7.6 h | bioavailability [8]: 112% | pIC50 [9]: 5.60 | pIC50 (Cytochrome P450 2C9): 5.20 | half-life [10]: > 3 h | half-life [11]: > 3 h | fraction unbound [12]: 0.003 | fraction unbound [13]: 0.002 | pIC50 (Cytochrome P450 2C8): 5.74 | Activity [15]: 8.9% | inhibition at 1 µM (CYP3A4 [16]): -1% | inhibition at 10 µM (CYP3A4 [17]): 3.4% | concentration at 0.5 h [27]: 61.4 µM | concentration at 1 h [18]: 52.1 µM | concentration at 2 h [28]: 46.4 µM | concentration at 4 h [29]: 39.7 µM | concentration at 7 h [30]: 43.1 µM | concentration at 24 h [31]: 2.2 µM | inhibition [32]: 73% | inhibition [19]: 68% | inhibition [33]: 75% | inhibition [34]: 61% | inhibition [35]: 46% | inhibition [36]: 39% | Cmax [37]: 303 µg/mL | AUC [38]: 4710 µg·h/mL | Cmax [39]: 151 µg/mL | AUC [40]: 1790 µg·h/mL
